According to ChEMBL document CHEMBL5344408, “Pyrimidine thioethers: A novel class of antidepressant agents, endowed with anxiolytic, performance enhancing and nootropic activity” (Eur J Med Chem, 2023):
“And” between values parts separate entries of the source, which are not always exact repeats. Equal values may be shown once. The source made the active and inactive calls. The rule behind the calls is not given here.

Tests used:
[1] = system: Mus musculus; test: Anxiolytic activity in Albino mouse assessed as increase in number of central zone crossing at […], po administered through intragastric tube measured after 40 mins by elevated plus maze test; type: functional, organism-based
[2] = system: Mus musculus; test: Anxiolytic activity in Albino mouse assessed as increase in number of open arm entries at […], po administered through intragastric tube measured after 40 mins by elevated plus maze test; type: functional, organism-based
[3] = system: Mus musculus; test: Effect on memory formation in Albino mouse assessed as memory of negative experience by measuring dark room entry at […], po administered through intragastric tube measured after 7 days by conditioned avoidance test; type: functional, organism-based; details: time 7.0 day
[4] = system: Mus musculus; test: Nootropic activity in Albino mouse assessed as quick escape from restricting factor in aversive environment at […], po administered through intragastric tube measured after 7 days by conditioned avoidance test; type: functional, organism-based; details: time 7.0 day
[5] = system: Mus musculus; test: Anxiolytic activity in Albino mouse assessed as rapid open arm entry at […], po administered through intragastric tube measured after 40 mins by elevated plus maze test; type: functional, organism-based
[6] = system: Mus musculus; test: Anxiolytic activity in Albino mouse assessed as increase in time spent in open arm entries at […], po administered through intragastric tube measured after 40 mins by elevated plus maze test; type: functional, organism-based
[7] = system: Mus musculus; test: Anxiolytic activity in Albino mouse assessed as increase in motor activity by measuring increase in number of square crossing at […], po administered through intragastric tube measured after 40 mins by open field test; type: functional, organism-based
[8] = Toxicity in po dosed female Albino mouse; type: organism-based; details: in vivo
[9] = system: Mus musculus; test: Antidepressant activity in Albino mouse with social depression assessed as increase in interaction frequency with partner mouse at […], po administered through intragastric tube measured after 40 mins by social interaction test; type: functional, organism-based
[10] = system: Mus musculus; test: Antidepressant activity in Albino mouse with social depression assessed as increase in time of interaction with partner mouse at […], po administered through intragastric tube measured after 40 mins by social interaction test; type: functional, organism-based

Compound	Activity [1]	Activity [2]	Activity [3]	Activity [4]	Activity [5]	Activity [6]	Activity [7]	LD50 ([8]; po)	LD50 ([8]; female, Albino, read-out: LD50)	Activity [9]	Activity [10]
CC(C)c1c(O)nc(N2CCSCC2)[nH]c1=O	Active	Active	inactive	Active	Active	Active	–	–	–	–	–
CSCCSc1nc(O)c(C(C)C)c(=O)[nH]1	Active	Active	Active	inactive	Active	–	Active	–	–	–	–
CCN(CC)CCSc1nc(O)c(CCSC)c(=O)[nH]1	–	–	inactive	Active	inactive	–	Active	–	–	–	–
CCN(CC)CCSc1nc(O)c(C(C)C)c(O)n1	–	–	Active	–	Active	Active	–	–	–	–	–
CC(C)c1c(O)nc(SCCN(C)C)nc1O	Active	Active	Active	inactive	Active	Active	–	–	–	–	–
CCCC(C)c1c(O)nc(SCCN(C)C)[nH]c1=O (stereo unspecified)	Active	Active	inactive	Active	Active	Active	Active	–	–	–	–
CC(C)CCc1c(O)nc(SCCN(C)C)[nH]c1=O	–	–	inactive	inactive	–	–	–	–	–	–	–
CC(C)CCc1c(O)nc(SCCN2CCCCC2)[nH]c1=O	–	–	inactive	Active	inactive	–	–	–	–	–	–
CC(C)CCc1c(O)nc(SCCN2CCCC2)[nH]c1=O	–	–	inactive	–	inactive	–	–	–	–	–	–
CC(C)c1c(O)nc(SCCN2CCCCC2)[nH]c1=O	Active	Active	Active	–	Active	Active	–	–	–	–	–
CCCC(C)c1c(O)nc(SCCN2CCCC2)[nH]c1=O (stereo unspecified)	Active	Active	inactive	–	–	Active	inactive	–	–	–	–
CSCCc1c(O)nc(SCCN2CCCC2)[nH]c1=O	Active	Active	inactive	–	Active	Active	inactive	–	–	–	–
CC(C)c1c(O)nc(SCCN2CCCC2)[nH]c1=O.Cl	–	–	inactive	–	–	–	Active	544 mg kg-1 and 1563 umol/Kg	–	–	–
CSCCc1c(O)nc(SCCN(C)C)[nH]c1=O	Active	Active	inactive	–	–	–	inactive	–	–	–	–
CCCC(C)c1c(O)nc(SCCN(CC)CC)[nH]c1=O.Cl (stereo unspecified)	Active	Active	inactive	inactive	Active	Active	–	–	1840 mg/kg and 5720 µmol/kg	Active	Active
CCN(CC)CCSc1nc(O)c(CCC(C)C)c(=O)[nH]1	–	–	inactive	–	inactive	–	Active	–	–	–	–
CSCCc1c(O)nc(SCCN2CCCCC2)[nH]c1=O	Active	Active	inactive	inactive	–	–	–	–	–	–	–
CCCC(C)c1c(O)nc(SCCN2CCCCC2)[nH]c1=O (stereo unspecified)	–	Active	inactive	–	inactive	–	–	–	–	–	–
